Reference: patent publication US12410160B2 (Gilead Sciences, Inc., priority 2021, dated 2025)
Read-outs that look alike come from different tables or passages of the source.

How the values were obtained:
[1] = molecular target: KHK-C expressed in NRK-52E cells (Homo sapiens (Human), UniProt P50053); assay: KHK-C Cell-based Assay (EC50), NRK CTG, fructose-mediated ATP-depletion
human KHK-C = human KHK-C (Homo sapiens (Human), UniProt P50053); assay: KHK Biochemical Assay (IC50), ADP-Glo, KHK-C; conditions: average of at least two separate assays
In short: (§1)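 His-tagged enzyme expressed in BL21 (DE3), Ni-NTA purified. Compounds, serially diluted 1:3 in DMSO, pre-incubated 30 min with enzyme in 50 mM Hepes pH 7.4, 140 mM KCl, 5 mM MgCl2, 0.01% Triton-X, then ATP and fructose added; 4 h at room temperature. ADP formation read by ADP-Glo luminescence.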

human KHK-A = human KHK-A (Homo sapiens (Human), UniProt P50053); assay: KHK Biochemical Assay (IC50), ADP-Glo, KHK-A; conditions: average of at least two separate assays
In short: as §1

HepG2 cells = assay: F1P Cell-Based Assay (EC50), 13C6-fructose-1-phosphate in HepG2 cells (cell culture medium or 50% human plasma)
[2] = HepG2 cells, 50% human plasma, read-out: F1P 50% HP EC50
[3] = read-out: F1P 10% FBS EC50, HepG2 cells, cell culture medium (10% FBS)
[4] = Homo sapiens, HepG2, HepG2 cells, 50% human plasma, read-out: F1P 50% HP EC50
[5] = Homo sapiens, HepG2, read-out: F1P 10% FBS EC50, HepG2 cells, cell culture medium (10% FBS)

Chain of KHK-C expressed in NRK-52E cells (P50053 whole entry): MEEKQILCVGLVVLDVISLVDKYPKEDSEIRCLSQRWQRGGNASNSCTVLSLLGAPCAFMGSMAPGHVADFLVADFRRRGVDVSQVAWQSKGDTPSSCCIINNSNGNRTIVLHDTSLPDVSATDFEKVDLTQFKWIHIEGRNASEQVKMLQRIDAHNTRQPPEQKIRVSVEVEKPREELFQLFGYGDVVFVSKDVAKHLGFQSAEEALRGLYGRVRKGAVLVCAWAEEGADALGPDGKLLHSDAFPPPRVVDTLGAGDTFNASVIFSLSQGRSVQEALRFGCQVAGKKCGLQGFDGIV
Chain of human KHK-C (P50053 whole entry): as above
Chain of human KHK-A (P50053 other isoform, or with tags, fused parts or gaps): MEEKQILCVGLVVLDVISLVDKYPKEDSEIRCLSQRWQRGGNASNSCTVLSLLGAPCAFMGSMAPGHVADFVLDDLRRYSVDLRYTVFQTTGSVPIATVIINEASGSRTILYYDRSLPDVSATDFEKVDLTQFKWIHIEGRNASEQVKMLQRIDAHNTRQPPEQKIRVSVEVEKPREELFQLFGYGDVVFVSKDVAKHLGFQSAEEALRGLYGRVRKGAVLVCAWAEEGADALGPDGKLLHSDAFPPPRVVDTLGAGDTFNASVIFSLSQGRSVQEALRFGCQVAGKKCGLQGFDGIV

## C[C@H]1[C@H](CO)CN1c1nc2c(c(-c3ccc(C(N)=O)cc3)n1)CCC2 (racemic) [Example 267, (rac)-4-(2-((2S*,3R*)-3-(hydroxymethyl)-2-methylazetidin-1-yl)-6,7-dihydro-5H-cyclopenta[d]pyrimidin-4-yl)benzamide]
[1]
  EC50: > 5000 nM

## COc1ccc(-c2nc(N3C[C@@H](O)[C@@H]3C)nc3c2CCC3(F)F)cc1[S@@](=N)(=O)C1CC1 (single isomer, unassigned) [Example 539]
Human KHK-C
  IC50: 1 nM
Human KHK-A
  IC50: 0.4 nM
HepG2 cells; [2]
  EC50: 8.9 nM
HepG2 cells; [3]
  EC50: 2 nM

## C[C@H]1[C@H](O)CN1c1nc(-c2ccc3c(c2)OCC[C@@H]3NS(C)(=O)=O)c2c(n1)C(F)(F)CC2 (single isomer, unassigned) [Example 787]
Human KHK-C
  IC50: 1.1 nM
Human KHK-A
  IC50: 7 nM
HepG2 cells; [4]
  EC50: 27.5 nM
HepG2 cells; [5]
  EC50: 14.9 nM

## C[C@H]1[C@H](F)CN1c1nc(-c2ccc([C@H](N)CS(C)(=O)=O)cc2)c2c(n1)C(F)(F)CC2 (single isomer, unassigned) [Example 788]
Human KHK-C
  IC50: 2.5 nM
Human KHK-A
  IC50: 6 nM
HepG2 cells; [2]
  EC50: 76.5 nM
HepG2 cells; [3]
  EC50: 18.6 nM

## C[C@H]1[C@H](O)CN1c1nc(-c2cc(F)c3c(c2)OC[C@@H]3NS(C)(=O)=O)c2c(n1)C(F)(F)CC2 (single isomer, unassigned) [Example 813]
Human KHK-C; ADP-Glo
  IC50: 2.5 nM
Human KHK-A; ADP-Glo
  IC50: 34.7 nM
HepG2 cells; [4]
  EC50: 78.4 nM
HepG2 cells; [5]
  EC50: 25.2 nM

## C[C@H]1[C@@H](F)CN1c1nc(-c2ccc(C3(N)COC3)cc2)c2c(n1)C(F)(F)CC2 (stereo in doubt) [Example 469, 3-(4-(7,7-difluoro-2-((28,38)-3-fluoro-2-methylazetidin-1-yl)-6,7-dihydro-5H-cyclopenta[d]pyrimidin-4-yl)phenyl)oxetan-3-amine]
Human KHK-C
  IC50: 2.5 nM
Human KHK-A
  IC50: 6.7 nM
HepG2 cells; [4]
  EC50: 22.5 nM
HepG2 cells; [5]
  EC50: 10.7 nM

## C[C@H]1[C@H](F)CN1c1nc2c(c(-c3ccc4c(c3)C(=O)N(C)C4)n1)CCC2 [Example 203, 6-[2-[(2S,3R)-3-fluoro-2-methyl-azetidin-1-yl]-6,7-dihydro-5H-cyclopenta[d]pyrimidin-4-yl]-2-methyl-isoindolin-1-one]
[1]
  EC50: 59.5 nM

## C[C@H]1CCN1c1nc2c(c(-c3ccc4c(c3)C(=O)N(C)C4)n1)CCC2 [Example 206, 2-methyl-6-[2-[(2S)-2-methylazetidin-1-yl]-6,7-dihydro-5H-cyclopenta[d]pyrimidin-4-yl]isoindolin-1-one]
[1]
  EC50: 26.6 nM

## C[C@H]1CCN1c1nc(-c2cccc(C(N)=O)c2)c2c(n1)C1CC1C2 (stereo partly drawn) [Example 272, 3-(2-((S)-2-methylazetidin-1-yl)-5,5a,6,6a-tetrahydrocyclopropa[4,5]cyclopenta[1,2-d]pyrimidin-4-yl)benzamide]
[1]
  EC50: 635 nM

## C[C@H]1CCN1c1nc2c(c(-c3ccc(C4(NS(C)(=O)=O)CC4)cc3)n1)CCC2 [Example 306, (S)—N-(1-(4-(2-(2-methylazetidin-1-yl)-6,7-dihydro-5H-cyclopenta[d]pyrimidin-4-yl)phenyl)cyclopropyl)methanesulfonamide]
[1]
  EC50: 450 nM

## C[C@H]1[C@H](F)CN1c1nc2c(c(-c3cccc(CN)c3)n1)CCC2 [Example 352, [3-[2-[(2S,3R)-3-fluoro-2-methyl-azetidin-1-yl]-6,7-dihydro-5H-cyclopenta[d]pyrimidin-4-yl]phenyl]methanamine]
[1]
  EC50: 201 nM

## C[C@H]1CCN1c1nc2c(c(-c3ccc(CNS(C)(=O)=O)cc3)n1)CCC2 [Example 361, N-[[4-[2-[(2S)-2-methylazetidin-1-yl]-6,7-dihydro-5H-cyclopenta[d]pyrimidin-4-yl]phenyl]methyl]methanesulfonamide]
[1]
  EC50: 65.7 nM

## C[C@H]1CCN1c1nc2c(c(-c3nc4ccccc4[nH]3)n1)CCC2 [Example 389, 2-[2-[(2S)-2-methylazetidin-1-yl]-6,7-dihydro-5H-cyclopenta[d]pyrimidin-4-yl]-1H-benzimidazole]
[1]
  EC50: 217 nM

## C[C@H]1CCN1c1nc(-c2ccc(C(N)=O)cc2)c2cn[nH]c2n1 [Example 401, (S)-4-(6-(2-methylazetidin-1-yl)-1H-pyrazolo[3,4-d]pyrimidin-4-yl)benzamide]
[1]
  EC50: > 5000 nM

## C[C@H]1[C@H](O)CN1c1nc(-c2ccc3c(c2)CC[C@]32NC(=O)NC2=O)c2c(n1)C(F)(F)CC2 [Example 486, (S)-5′-(7,7-difluoro-2-((2S,3R)-3-hydroxy-2-methylazetidin-1-yl)-6,7-dihydro-5H-cyclopenta[d]pyrimidin-4-yl)-2′,3′-dihydrospiro[imidazolidine-4,1′-indene]-2,5-dione]
Human KHK-C
  IC50: 0.2 nM
Human KHK-A
  IC50: 1.7 nM
HepG2 cells; [4]
  EC50: 8.3 nM
HepG2 cells; [5]
  EC50: 6 nM

## C[C@H]1[C@H](O)CN1c1nc(-c2cc(F)c3c(c2)CCC3NS(C)(=O)=O)c2c(n1)C(F)(F)CC2 (stereo partly drawn) [Example 525, N-(5-(7,7-difluoro-2-((2S,3R)-3-hydroxy-2-methylazetidin-1-yl)-6,7-dihydro-5H-cyclopenta[d]pyrimidin-4-yl)-7-fluoro-2,3-dihydro-1H-inden-1-yl)methanesulfonamide]
Human KHK-C
  IC50: 1.8 nM
Human KHK-A
  IC50: 29.8 nM
HepG2 cells; [4]
  EC50: 86.6 nM
HepG2 cells; [5]
  EC50: 32.5 nM

## CS(=O)(=O)N[C@H]1COc2cc(-c3nc(N4CC[C@@H]4C(F)F)nc4c3CCC4(F)F)ccc21 [Example 545, N—((R)-6-(2-((R)-2-(difluoromethyl)azetidin-1-yl)-7,7-difluoro-6,7-dihydro-5H-cyclopenta[d]pyrimidin-4-yl)-2,3-dihydrobenzofuran-3-yl)methanesulfonamide]
Human KHK-C
  IC50: 1 nM
Human KHK-A
  IC50: 4 nM
HepG2 cells; [4]
  EC50: 24.7 nM
HepG2 cells; [5]
  EC50: 2.4 nM

## CC(=O)NC1COc2cc(-c3nc(N4C[C@@H](O)[C@@H]4C)nc4c3CCC4(F)F)cc(F)c21 (some centres unmarked) [Example 809]
Human KHK-C; ADP-Glo
  IC50: 24.8 nM
HepG2 cells; [4]
  EC50: 179 nM
HepG2 cells; [5]
  EC50: 110 nM

## C[C@H]1[C@H](O)CN1c1nc(-c2ccc3c(c2)CCC3(C)NS(C)(=O)=O)c2c(n1)C(F)(F)CC2 (stereo partly drawn) [Example 810, N-[5-[7,7-difluoro-2-[(2S,3R)-3-hydroxy-2-methyl-azetidin-1-yl]-5,6-dihydrocyclopenta[d]pyrimidin-4-yl]-1-methyl-indan-1-yl]methanesulfonamide]
Human KHK-C; ADP-Glo
  IC50: 34.9 nM
HepG2 cells; [4]
  EC50: > 500 nM
HepG2 cells; [5]
  EC50: 206 nM

## COC(=O)NC1COc2cc(-c3nc(N4C[C@@H](O)[C@@H]4C)nc4c3CCC4(F)F)cc(F)c21 (stereo partly drawn) [Example 811, methyl (6-(7,7-difluoro-2-((2S,3R)-3-hydroxy-2-methylazetidin-1-yl)-6,7-dihydro-5H-cyclopenta[d]pyrimidin-4-yl)-4-fluoro-2,3-dihydrobenzofuran-3-yl)carbamate]
Human KHK-C; ADP-Glo
  IC50: 5.2 nM
HepG2 cells; [4]
  EC50: 343 nM
HepG2 cells; [5]
  EC50: 127 nM

## C[C@H]1[C@H](O)CN1c1nc(-c2cc(F)c3c(c2)OCC3NS(C)(=O)=O)c2c(n1)C(F)(F)CC2 (stereo partly drawn) [Example 817, N-(6-(7,7-difluoro-2-((2S,3R)-3-hydroxy-2-methylazetidin-1-yl)-6,7-dihydro-5H-cyclopenta[d]pyrimidin-4-yl)-4-fluoro-2,3-dihydrobenzofuran-3-yl)methanesulfonamide]
Human KHK-C; ADP-Glo
  IC50: 5.9 nM
HepG2 cells; [4]
  EC50: 67.1 nM
HepG2 cells; [5]
  EC50: 39.7 nM

## C[C@H]1CCN1c1nc(-c2ccc3c(c2)CCNC3C(F)F)c2c(n1)C(F)(F)CC2 (stereo partly drawn) [Example 836, 6-(7,7-difluoro-2-((S)-2-methylazetidin-1-yl)-6,7-dihydro-5H-cyclopenta[d]pyrimidin-4-yl)-1-(difluoromethyl)-1,2,3,4-tetrahydroisoquinoline]
Human KHK-C; ADP-Glo
  IC50: 5.8 nM
HepG2 cells; [4]
  EC50: 158 nM
HepG2 cells; [5]
  EC50: 16.9 nM
